Our source for the IC50 values is patent publication US11130778B2, “CD73 inhibitors” (ORIC Pharmaceuticals, Inc., priority 2019, dated 2021).

SMILES strings stand for the structures. Where only a bound is given, the exact number is not on record here.

This experiment has as its target T1, CD73 (Homo sapiens, UniProt P21589).
T1 sequence (P21589 27-549): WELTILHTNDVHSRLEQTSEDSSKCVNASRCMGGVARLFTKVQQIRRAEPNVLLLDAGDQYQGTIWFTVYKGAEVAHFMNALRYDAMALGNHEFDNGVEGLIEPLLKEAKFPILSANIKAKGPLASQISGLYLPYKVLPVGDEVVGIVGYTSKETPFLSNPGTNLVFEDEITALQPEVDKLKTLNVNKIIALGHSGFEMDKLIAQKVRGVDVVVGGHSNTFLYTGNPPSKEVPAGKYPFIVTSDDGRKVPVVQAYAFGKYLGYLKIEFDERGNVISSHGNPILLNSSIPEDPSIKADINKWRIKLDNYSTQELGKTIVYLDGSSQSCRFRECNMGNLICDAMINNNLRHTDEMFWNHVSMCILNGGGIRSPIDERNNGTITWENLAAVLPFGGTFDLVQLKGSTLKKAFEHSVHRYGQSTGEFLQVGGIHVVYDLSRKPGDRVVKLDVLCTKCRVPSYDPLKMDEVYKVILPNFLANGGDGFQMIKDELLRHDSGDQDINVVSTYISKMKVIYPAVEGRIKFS
Kind of experiment: Biochemical assay of CD73 inhibition (Malachite Green). Particulars: CD73 0.3208 nM, AMP 15 μM, Tris-HCl pH 7.4, Malachite Green absorbance readout; read-out: CD73_Biochem. As for the experimental part: Example A1: Biochemical Assay
Assay Reaction Conditions
• Assay Volume: 70 μl • Reaction Volume: 50 μl • CD73: 0.3208 nM • AMP:15 μM • Assay Buffer: 2 5 mM Tris-HCL, pH 7.4, 0.01% Brij-35, 0.01% BSA, 5 mM MgCl2 Assay Procedure:
Made dose titration of testing compounds in assay buffer, 10 points 1/2 log titrations in duplicates starting at 100 μM.
Added 25 µl of CD73 to each well for a final concentration of […].
Incubated at RT for 15 min.
Added 25 µl of AMP to each well for a final concentration of 15 μM.
Incubated at RT for 10 min.
Added […] of Malachite Green Reagent A, incubate at RT for 10 min.
Added […] of Malachite Green Reagent B, incubate at RT for 45 min.
Read the Absorbance on Envision plate reader using excitation filter: Cy5 […].
The ability of the compounds disclosed herein to inhibit CD73 activity was quantified and the respective IC50 values were determined. Table 2 provides the biochemical IC50 values of compounds disclosed herein.
Regarding `COCC(Cc1nn[nH]n1)(OC[C@H]1O[C@@H](n2ncc3c(NC(C)C)nc(Cl)nc32)[C@H](O)[C@@H]1O)P(=O)(O)O` (stereo partly drawn) [Example 23, (2-(((2R,3S,4R,5R)-5-(6-chloro-4-(isopropylamino)-1H-pyrazolo[3,4-d]pyrimidin-1-yl)-3,4-dihydroxytetrahydrofuran-2-yl)methoxy)-1-methoxy-3-(2H-tetrazol-5-yl)propan-2-yl)phosphonic acid], the IC50 was not above 10 nM.

`O=P(O)(O)C(COCc1nnn[nH]1)(Cc1nnn[nH]1)OC[C@H]1O[C@@H](n2ncc3c(NC4CCCC4)nc(Cl)nc32)[C@H](O)[C@@H]1O` (stereo in doubt) [Example 41, ((S)-1-((1H-tetrazol-5-yl)methoxy)-2-(((2R,3S,4R,5R)-5-(6-chloro-4-(cyclopentylamino)-1H-pyrazolo[3,4-d]pyrimidin-1-yl)-3,4-dihydroxytetrahydrofuran-2-yl)methoxy)-3-(1H-tetrazol-5-yl)propan-2-yl)phosphonic acid]: the IC50 was not above 10 nM.

Turning to `CC(C)Nc1nc(Cl)nc2c1cnn2[C@@H]1O[C@H](CO[C@](CO)(Cc2nn[nH]n2)P(=O)(O)O)[C@@H](O)[C@H]1O` [Example 29, ((R)-2-(((2R,3S,4R,5R)-5-(6-chloro-4-(isopropylamino)-1H-pyrazolo[3,4-d]pyrimidin-1-yl)-3,4-dihydroxytetrahydrofuran-2-yl)methoxy)-1-hydroxy-3-(2H-tetrazol-5-yl)propan-2-yl)phosphonic acid], the IC50 was not above 10 nM.

Consider `O=c1[nH]c(C[C@@](CO)(OC[C@H]2O[C@@H](n3ncc4c(NC5CCCC5)nc(Cl)nc43)[C@H](O)[C@@H]2O)P(=O)(O)O)no1` [Example 26, ((R)-2-(((2R,3S,4R,5R)-5-(6-chloro-4-(cyclopentylamino)-1H-pyrazolo[3,4-d]pyrimidin-1-yl)-3,4-dihydroxytetrahydrofuran-2-yl)methoxy)-1-hydroxy-3-(5-oxo-4,5-dihydro-1,2,4-oxadiazol-3-yl)propan-2-yl)phosphonic acid], for which the IC50 is not above 10 nM.

For the molecule `COCC(OC[C@H]1O[C@@H](n2ncc3c(NC4CCCC4)nc(Cl)nc32)[C@H](O)[C@@H]1O)(C(=O)N(C)C)P(=O)(O)O` (stereo partly drawn) [Example 15, (2-(((2R,3S,4R,5R)-5-(6-chloro-4-(cyclopentylamino)-1H-pyrazolo[3,4-d]pyrimidin-1-yl)-3,4-dihydroxytetrahydrofuran-2-yl)methoxy)-1-(dimethylamino)-3-methoxy-1-oxopropan-2-yl)phosphonic acid], the IC50 is 10 to 100 nM.

As to `[2H]C([2H])([2H])OC[C@](COCc1nn[nH]n1)(OC[C@H]1O[C@@H](n2ncc3c(NC4CCCC4)nc(Cl)nc32)[C@H](O)[C@@H]1O)P(=O)(O)O` [Example 59, ((S)-1-((2H-tetrazol-5-yl)methoxy)-2-(((2R,3S,4R,5R)-5-(6-chloro-4-(cyclopentylamino)-1H-pyrazolo[3,4-d]pyrimidin-1-yl)-3,4-dihydroxytetrahydrofuran-2-yl)methoxy)-3-(methoxy-d3)propan-2-yl)phosphonic acid], the IC50 is not above 10 nM.

With `COCC(OC[C@H]1O[C@@H](n2ncc3c(NC4CCCC4)nc(Cl)nc32)[C@H](O)[C@@H]1O)(C(=O)O)P(=O)(O)O` (stereo partly drawn) [Example 46, 2-(((2R,3S,4R,5R)-5-(6-chloro-4-(cyclopentylamino)-1H-pyrazolo[3,4-d]pyrimidin-1-yl)-3,4-dihydroxytetrahydrofuran-2-yl)methoxy)-3-methoxy-2-phosphonopropanoic acid], the IC50 was not above 10 nM.

Consider `O=P(O)(O)[C@](CO)(COCc1nn[nH]n1)OC[C@H]1O[C@@H](n2ncc3c(NC4CCC4)nc(Cl)nc32)[C@H](O)[C@@H]1O` [Example 52, ((R)-1-((1H-tetrazol-5-yl)methoxy)-2-(((2R,3S,4R,5R)-5-(6-chloro-4-(cyclobutylamino)-1H-pyrazolo[3,4-d]pyrimidin-1-yl)-3,4-dihydroxytetrahydrofuran-2-yl)methoxy)-3-hydroxypropan-2-yl)phosphonic acid], for which the IC50 is not above 10 nM.

For `CC(C)CNc1nc(Cl)nc2c1cnn2[C@@H]1O[C@H](CO[C@@](CO)(Cc2nn[nH]n2)P(=O)(O)O)[C@@H](O)[C@H]1O` [Example 32, ((S)-2-(((2R,3S,4R,5R)-5-(6-chloro-4-(isobutylamino)-1H-pyrazolo[3,4-d]pyrimidin-1-yl)-3,4-dihydroxytetrahydrofuran-2-yl)methoxy)-1-hydroxy-3-(2H-tetrazol-5-yl)propan-2-yl)phosphonic acid], the IC50 fell in the range of 10 to 100 nM.

For the molecule `CC(CS(C)(=O)=O)(OC[C@H]1O[C@@H](n2ncc3c(NC4CCCC4)nc(Cl)nc32)[C@H](O)[C@@H]1O)P(=O)(O)O` (stereo partly drawn) [Example 57, (2-(((2R,3S,4R,5R)-5-(6-chloro-4-(cyclopentylamino)-1H-pyrazolo[3,4-d]pyrimidin-1-yl)-3,4-dihydroxytetrahydrofuran-2-yl)methoxy)-1-(methylsulfonyl)propan-2-yl)phosphonic acid], the IC50 lay in the range of 10 to 100 nM.

As to `CC(C)CNc1nc(Cl)nc2c1cnn2[C@@H]1O[C@H](COC(CO)(Cc2nn[nH]n2)P(=O)(O)O)[C@@H](O)[C@H]1O` (stereo partly drawn) [Example 16, (2-(((2R,3S,4R.,5R)-5-(6-chloro-4-(isobutylamino)-1H-pyrazolo[3,4-d]pyrimidin-1-yl)-3,4-dihydroxytetrahydrofuran-2-yl)methoxy)-1-hydroxy-3-(2H-tetrazol-5-yl)propan-2-yl)phosphonic acid], the IC50 was not above 10 nM.

For the molecule `COC[C@](CC(=O)NO)(OC[C@H]1O[C@@H](n2ncc3c(NC4CCCC4)nc(Cl)nc32)[C@H](O)[C@@H]1O)P(=O)(O)O` [Example 8, ((R)-2-(((2R,3S,4R,5R)-5-(6-chloro-4-(cyclopentylamino)-1H-pyrazolo[3,4-d]pyrimidin-1-yl)-3,4-dihydroxytetrahydrofuran-2-yl)methoxy)-4-(hydroxyamino)-1-methoxy-4-oxobutan-2-yl)phosphonic acid], the IC50 was not above 10 nM.

With `O=P(O)(O)[C@](CO)(Cc1nn[nH]n1)OC[C@H]1O[C@@H](n2ncc3c(NCC4CCC4)nc(Cl)nc32)[C@H](O)[C@@H]1O` [Example 19, ((S)-2-(((2R,3S,4R,5R)-5-(6-chloro-4-((cyclobutylmethyl)amino)-1H-pyrazolo[3,4-d]pyrimidin-1-yl)-3,4-dihydroxytetrahydrofuran-2-yl)methoxy)-1-hydroxy-3-(2H-tetrazol-5-yl)propan-2-yl)phosphonic acid], the IC50 was not above 10 nM.

On to `C[C@H]1CCC[C@@H]1Nc1nc(Cl)nc2c1cnn2[C@@H]1O[C@H](COC(CO)(CO)P(=O)(O)O)[C@@H](O)[C@H]1O` [Example 14, (2-(((2R,3S,4R,5R)-5-(6-chloro-4-(((1S,2S)-2-methylcyclopentyl)amino)-1H-pyrazolo[3,4-d]pyrimidin-1-yl)-3,4-dihydroxytetrahydrofuran-2-yl)methoxy)-1,3-dihydroxypropan-2-yl)phosphonic acid], for which the IC50 was not above 10 nM.

For the molecule `CC(C)Nc1nc(Cl)nc2c1cnn2[C@@H]1O[C@H](CO[C@@](CO)(Cc2nn[nH]n2)P(=O)(O)O)[C@@H](O)[C@H]1O` [Example 28, ((S)-2-(((2R,3S,4R,5R)-5-(6-chloro-4-(isopropylamino)-1H-pyrazolo[3,4-d]pyrimidin-1-yl)-3,4-dihydroxytetrahydrofuran-2-yl)methoxy)-1-hydroxy-3-(2H-tetrazol-5-yl)propan-2-yl)phosphonic acid], the IC50 fell in the range of 10 to 100 nM.
